What was measured:
[1] = target: presynaptic NMDARs of spinal lamina II neurons (Rattus norvegicus, UniProt P35439+Q00959+Q00960)
α2δ-1 = α2δ-1 expression, α2δ-1-GluN1 complex and synaptosomal proteins after paclitaxel; format: in vivo, rat; conditions: paclitaxel- vs vehicle-treated rats
Experimental: (§1) To induce neuropathic pain, rats and mice were intraperitoneally injected with paclitaxel (2 mg/kg; TEVA Pharmaceuticals, North Wales, Pa.) every 2 days for a total of 4 injections (days 1, 3, 5 and 7; total dose, 8 mg/kg), as described previously (Polomano et al., 2001). Animals in the control group were intraperitoneally injected with the vehicle (Cremophor EL/ethanol, 1:1) on the same 4 days. The presence of tactile allodynia was confirmed 10 to 12 days after drug treatment. Intrathecal catheters were implanted in some paclitaxel-treated rats during isoflurane-induced anesthesia. Briefly, a small puncture was made in the atlanto-occipital membrane of the cisterna magna and inserted a PE-10 catheter with the caudal tip reaching the lumbar enlargement of the spinal cord (Chen et al., 2014a; Xie et al., 2016).
Quantitative PCR: Rats were deeply anesthetized with 5% isoflurane, and the DRG and dorsal half of spinal cord tissues at the L5 and L6 levels were removed. Total RNA was extracted from the DRG and spinal cord tissues using TRIsure (Cat. #BIO-38032, Bioline, Taunton, Mass.). After treatment with RNase-free DNase (Cat. #79254, QIAGEN, Hilden, Germany), 500 ng RNA was used for reverse transcription with a RevertAid RT Reverse Transcription Kit (Cat. #K1619, Thermo Fisher Scientific, Waltham, Mass.). One μL of 5-times diluted cDNA was added to a 10-μL reaction volume with SYBR Green Real-Time PCR Mix (Cat. #A25780, Thermo Fisher Scientific). Real-time PCR was performed using a QuantStudio 7 Flex Real-Time PCR System (Applied Biosystems, Waltham, Mass.). The thermal cycling conditions used were: 1 cycle at 95° C. for 10 min, 40 cycles at 95° C. for 15 s, and 60° C. for 60 s. The following primers were used: α2δ-1 forward, […] (SEQ ID NO:60); α2δ-1 reverse, […] (SEQ ID NO:61); α2δ-2 forward, […] (SEQ ID NO:62); α2δ-2 reverse, […] (SEQ ID NO:63); α2δ-3 forward, […] (SEQ ID NO:64); α2δ-3 reverse, […] (SEQ ID NO:65); Gapdh forward, […] (SEQ ID NO:66); Gapdh reverse. […] (SEQ ID NO:67). Relative mRNA levels were calculated using the 2−ΔΔCT method and normalized to the Gapdh level in the same sample.
Coimmunoprecipitation using spinal cord tissue membrane extracts: Tissues from the dorsal halves of the rat spinal cord at the L5 and L6 levels were collected under isoflurane anesthesia and homogenized in ice-cold hypotonic buffer (20 mM Tris [pH 7.4], 1 mM CaCl2), 1 mM MgCl2, and protease inhibitors) for extracting membrane proteins. The nuclei and unbroken cells were removed by centrifugation at 300×g for 5 min, and the supernatant was centrifuged for 20 min at 21,000×g. The pellets were re-suspended and solubilized in immunoprecipitation buffer (50 mM Tris [pH7.4], 250 mM NaCl, 10% glycerol, 0.5% NP-40, 20 mM NaF, 1 mM Na3VO4, 10 mM N-ethylmaleimide, 1 mM phenylmethylsulfonyl fluoride, 2 mM benzamide, and protease inhibitors), and the soluble fraction was incubated at 4° C. overnight with Protein A/G beads ([…], Millipore, Darmstadt, Germany) prebound to mouse anti-GluN1 antibody (#75-272, 1:1000, NeuroMab, Davis, Calif.). Protein A/G beads prebound to mouse IgG were uses as the control. All samples were washed 3 times with immunoprecipitation buffer and then immunoblotted with rabbit anti-α2δ-1 (#ACC-015, 1:500, Alomone Labs, Jerusalem, Israel) and rabbit anti-GluN1 antibodies (#G8913, 1:1,000, Sigma-Aldrich, St. Louis, Mo.). The amount of the α2δ-1-GluN1 protein complex was calculated by normalizing the amount of α2δ-1 to that of GluN1 on the same gel. […]

paclitaxel-treated rats = test: Paclitaxel-induced pain hypersensitivity in rats; format: in vivo, rat; conditions: paclitaxel- vs vehicle-treated rats
Experimental: as §1
Behavioral assessment of nociception: To measure tactile allodynia, mice or rats were individually placed on a mesh floor within a suspended chamber. […]
To quantify the mechanical nociceptive threshold in rats, the paw pressure (Randall-Selitto) test was conducted on the left hindpaw using an analgesiometer (Ugo Basile, Varese, Italy). […] When the rat withdrew its paw or vocalized, the pedal was immediately released, and the withdrawal threshold was recorded (Chen et al., 2014a). […]
(§2) To assess the thermal sensitivity of rats, the were placed individually on the glass surface of a thermal testing apparatus (IITC Life Sciences, Woodland Hills, Calif.). […] The paw withdrawal latency was recorded with a timer, and the hindpaw was tested twice to obtain an average time. […] After the threshold temperature was recorded, the mice were immediately removed from the plate. The heat threshold measurement was repeated 30 min later, and the average of the 2 recorded temperatures was considered as the heat threshold. The cold threshold was measured by cooling the plate from 30° C. at a rate of 6° C./min until nocifensive behaviors were observed. […]

WT mice = test: Paclitaxel-induced pain hypersensitivity in mice; format: in vivo, mouse
Experimental: as §1, with “Briefly, a small puncture was made in the atlanto-occipital membrane of the cisterna magna and inserted a PE-10 catheter with the caudal tip reaching the lumbar enlargement of the spinal cord (Chen et al., 2014a; Xie et al., 2016).” left out
as §2

Sequence of presynaptic NMDARs of spinal lamina II neurons (Q00959 20-1464 limits assumed, other chains not shown): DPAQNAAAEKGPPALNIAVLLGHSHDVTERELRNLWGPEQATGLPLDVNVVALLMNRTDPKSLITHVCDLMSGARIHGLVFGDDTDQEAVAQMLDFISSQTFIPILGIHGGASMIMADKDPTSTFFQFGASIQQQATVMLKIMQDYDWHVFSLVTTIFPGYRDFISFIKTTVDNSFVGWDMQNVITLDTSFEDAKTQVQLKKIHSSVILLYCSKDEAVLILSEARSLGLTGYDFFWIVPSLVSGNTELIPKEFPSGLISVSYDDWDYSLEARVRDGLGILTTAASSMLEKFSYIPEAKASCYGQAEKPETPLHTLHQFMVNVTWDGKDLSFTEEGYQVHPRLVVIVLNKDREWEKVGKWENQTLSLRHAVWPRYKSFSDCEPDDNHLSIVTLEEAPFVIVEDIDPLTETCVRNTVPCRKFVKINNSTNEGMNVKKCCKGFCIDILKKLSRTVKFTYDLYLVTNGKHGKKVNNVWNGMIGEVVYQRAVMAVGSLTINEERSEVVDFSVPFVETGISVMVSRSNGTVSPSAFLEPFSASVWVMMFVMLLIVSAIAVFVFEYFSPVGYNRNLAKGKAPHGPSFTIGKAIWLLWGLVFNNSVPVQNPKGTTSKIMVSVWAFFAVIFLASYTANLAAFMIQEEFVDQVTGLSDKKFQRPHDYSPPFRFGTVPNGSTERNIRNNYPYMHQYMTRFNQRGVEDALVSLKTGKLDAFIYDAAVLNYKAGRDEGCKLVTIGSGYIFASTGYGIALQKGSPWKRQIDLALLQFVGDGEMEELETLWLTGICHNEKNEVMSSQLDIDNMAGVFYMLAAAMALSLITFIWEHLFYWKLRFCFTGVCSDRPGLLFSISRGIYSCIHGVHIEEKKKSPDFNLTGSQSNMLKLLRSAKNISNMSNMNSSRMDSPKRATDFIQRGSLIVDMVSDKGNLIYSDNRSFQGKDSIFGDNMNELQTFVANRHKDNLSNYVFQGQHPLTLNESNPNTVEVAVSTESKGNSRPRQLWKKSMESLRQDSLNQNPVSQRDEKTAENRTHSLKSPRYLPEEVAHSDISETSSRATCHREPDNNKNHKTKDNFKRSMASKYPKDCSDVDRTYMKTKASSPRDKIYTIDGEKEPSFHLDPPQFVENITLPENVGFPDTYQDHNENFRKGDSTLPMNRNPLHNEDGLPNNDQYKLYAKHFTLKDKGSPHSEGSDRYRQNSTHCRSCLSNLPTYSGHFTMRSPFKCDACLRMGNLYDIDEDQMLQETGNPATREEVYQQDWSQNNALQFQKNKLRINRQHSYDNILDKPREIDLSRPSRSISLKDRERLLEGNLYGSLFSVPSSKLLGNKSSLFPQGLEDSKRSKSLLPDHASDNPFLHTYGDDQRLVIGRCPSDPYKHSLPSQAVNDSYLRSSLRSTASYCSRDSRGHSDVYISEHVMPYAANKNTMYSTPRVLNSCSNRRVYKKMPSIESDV
Sequence of presynaptic NMDARs of spinal lamina II neurons (Q00960 27-1482, other chains not shown): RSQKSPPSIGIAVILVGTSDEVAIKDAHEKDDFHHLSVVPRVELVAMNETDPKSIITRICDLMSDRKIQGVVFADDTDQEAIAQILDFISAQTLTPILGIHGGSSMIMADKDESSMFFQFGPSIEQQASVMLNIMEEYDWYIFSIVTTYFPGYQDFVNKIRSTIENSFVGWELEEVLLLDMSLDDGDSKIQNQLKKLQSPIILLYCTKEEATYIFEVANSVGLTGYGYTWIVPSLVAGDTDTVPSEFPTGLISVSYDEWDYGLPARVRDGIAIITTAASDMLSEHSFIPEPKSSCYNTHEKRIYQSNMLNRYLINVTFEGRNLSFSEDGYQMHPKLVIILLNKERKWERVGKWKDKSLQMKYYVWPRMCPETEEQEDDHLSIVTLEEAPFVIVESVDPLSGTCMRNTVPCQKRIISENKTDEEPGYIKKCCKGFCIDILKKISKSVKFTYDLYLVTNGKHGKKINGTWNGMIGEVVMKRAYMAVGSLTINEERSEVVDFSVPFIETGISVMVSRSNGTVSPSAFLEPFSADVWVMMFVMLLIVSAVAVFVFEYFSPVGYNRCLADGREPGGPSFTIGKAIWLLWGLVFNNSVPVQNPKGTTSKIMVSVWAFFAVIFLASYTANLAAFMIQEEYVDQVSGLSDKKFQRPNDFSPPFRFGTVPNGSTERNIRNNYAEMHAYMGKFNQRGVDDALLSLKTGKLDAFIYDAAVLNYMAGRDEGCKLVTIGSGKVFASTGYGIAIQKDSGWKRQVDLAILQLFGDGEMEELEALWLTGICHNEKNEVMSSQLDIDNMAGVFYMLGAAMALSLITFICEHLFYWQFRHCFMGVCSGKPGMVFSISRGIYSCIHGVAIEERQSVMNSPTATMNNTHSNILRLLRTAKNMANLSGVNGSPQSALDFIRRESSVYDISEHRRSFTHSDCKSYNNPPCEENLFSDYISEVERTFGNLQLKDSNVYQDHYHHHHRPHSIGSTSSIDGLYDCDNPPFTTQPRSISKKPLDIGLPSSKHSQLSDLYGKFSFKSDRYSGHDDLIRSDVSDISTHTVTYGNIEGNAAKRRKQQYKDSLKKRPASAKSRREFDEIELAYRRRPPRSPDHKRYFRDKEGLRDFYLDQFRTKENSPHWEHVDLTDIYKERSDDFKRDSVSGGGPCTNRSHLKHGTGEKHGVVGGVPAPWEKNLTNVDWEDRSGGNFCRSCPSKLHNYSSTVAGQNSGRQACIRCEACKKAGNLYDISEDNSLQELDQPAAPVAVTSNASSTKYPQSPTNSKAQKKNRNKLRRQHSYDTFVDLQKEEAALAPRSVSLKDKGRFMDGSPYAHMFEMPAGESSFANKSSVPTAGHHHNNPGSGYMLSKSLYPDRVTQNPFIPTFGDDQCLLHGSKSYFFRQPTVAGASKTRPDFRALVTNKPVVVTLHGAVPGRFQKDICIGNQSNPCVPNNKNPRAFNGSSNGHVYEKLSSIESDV

baseline amplitude of evoked monosynaptic EPSCs [1]: significantly larger
baseline frequency of mEPSCs in lamina II neurons [1]: significantly higher
paired-pulse ratio (PPR) in lamina II neurons [1]: significantly reduced
mRNA level of α2δ-2 or α2δ-3 in the DRG and dorsal spinal cord (α2δ-1): similar
α2δ-1-GluN1 complex in the dorsal spinal cord (α2δ-1): significantly higher
α2δ-1 and GluN1 protein levels in spinal synaptosomes (α2δ-1): significantly higher
α2δ-1 mRNA levels in the DRG and dorsal spinal cord (α2δ-1): substantially higher
α2δ-1 protein levels in the DRG and spinal cord (α2δ-1): much higher
withdrawal thresholds to tactile, noxious pressure and noxious heat stimuli (paclitaxel-treated rats): lower withdrawal thresholds
duration of hypersensitivity after the last injection (WT mice): at least 10 days
SMILES: CC(=O)O[C@H]1C(=O)[C@@]2(C)[C@H]([C@H](OC(=O)c3ccccc3)[C@]3(O)C[C@H](OC(=O)[C@H](O)[C@@H](NC(=O)c4ccccc4)c4ccccc4)C(C)=C1C3(C)C)[C@]1(OC(C)=O)CO[C@@H]1C[C@@H]2O [paclitaxel]
pain hypersensitivity after systemic paclitaxel (WT mice): induced tactile allodynia and heat and cold hyperalgesia
